{
  "source": "patent US9695155B2",
  "about": "“Herbicidal substituted pyrimidinyloxy benzene compounds” (E. I. DU PONT DE NEMOURS AND COMPANY, priority 2013, dated 2017)",
  "key": {"barnyardgrass [1]": {"tested_on": "barnyardgrass", "assay": "Test C postemergence", "assay_type": "in vivo, Echinochloa crus-galli", "procedure,_shortened": "(§1)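 Whole-plant greenhouse test with surfactant-containing solvent formulation, applied preemergence to sown loam–sand pots or postemergence to 2–18 cm plants. Scored by eye 13 to 15 days on, 0–100 scale.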"}, "johnsongrass": {"tested_on": "johnsongrass", "assay": "Test C postemergence", "assay_type": "in vivo, Sorghum halepense", "procedure,_shortened": "as §1"}, "pigweed [2]": {"tested_on": "pigweed", "assay": "Test A preemergence", "assay_type": "in vivo, Amaranthus retroflexus", "procedure,_shortened": "(§2)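 Pre- and postemergence greenhouse screen. Soil: loam + sand. Spray carrier: solvent mixture, non-phytotoxic, with surfactant. Post timing at 1–2 leaves, height 2–10 cm. Readout: visual injury on a 0–100 scale roughly 10 days after application, untreated plants as reference.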"}, "pigweed [3]": {"tested_on": "pigweed", "assay": "Test A postemergence", "assay_type": "in vivo, Amaranthus retroflexus", "procedure,_shortened": "as §2"}, "waterhemp": {"tested_on": "waterhemp", "assay": "Test C postemergence", "assay_type": "in vivo, Amaranthus rudis", "procedure,_shortened": "as §1"}, "sedge, umbrella": {"tested_on": "sedge, umbrella", "assay": "Test B flooded paddy test", "assay_type": "in vivo, Cyperus difformis", "conditions": "Flood, 250 g ai/ha; 0 to 100 scale where 0 is no effect and 100 is complete control", "procedure,_shortened": "(§3)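 Flooded to 3 cm at the 2-leaf stage, pots received compound through the paddy water and were kept at that depth under greenhouse conditions. After 13–15 days, effect was rated by eye relative to controls, 0 = none and 100 = complete control.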"}, "oilseed rape": {"tested_on": "oilseed rape", "assay": "Test C postemergence", "assay_type": "in vivo, Brassica napus", "procedure,_shortened": "as §1"}, "corn": {"tested_on": "corn", "assay": "Test C postemergence", "assay_type": "in vivo, Zea mays", "procedure,_shortened": "as §1"}, "large (Lg) crabgrass": {"tested_on": "large (Lg) crabgrass", "assay": "Test C postemergence", "assay_type": "in vivo, Digitaria sanguinalis", "procedure,_shortened": "as §1"}, "wheat, winter": {"tested_on": "wheat, winter", "assay": "Test C postemergence", "assay_type": "in vivo, Triticum aestivum", "procedure,_shortened": "as §1"}, "barnyardgrass [4]": {"tested_on": "barnyardgrass", "assay": "Test B flooded paddy test", "assay_type": "in vivo, Echinochloa crus-galli", "conditions": "Flood, 250 g ai/ha; 0 to 100 scale where 0 is no effect and 100 is complete control", "procedure,_shortened": "as §3"}, "chickweed": {"tested_on": "chickweed", "assay": "Test C postemergence", "assay_type": "in vivo, Stellaria media", "procedure,_shortened": "as §1"}, "Heteranthera limosa": {"tested_on": "Heteranthera limosa", "assay": "Test B flooded paddy test", "assay_type": "in vivo", "conditions": "Flood, 250 g ai/ha; 0 to 100 scale where 0 is no effect and 100 is complete control", "procedure,_shortened": "as §3"}, "[5]": {"conditions": "16 g ai/ha, postemergence, 0 is no effect, 100 is complete control"}, "[6]": {"conditions": "31 g ai/ha, postemergence, visual rating, scale 0 to 100 (0 no effect, 100 complete control), 13 to 15 days"}, "[7]": {"conditions": "125 g ai/ha, postemergence, visual rating, scale 0 to 100 (0 no effect, 100 complete control)"}, "[8]": {"conditions": "Postemergence, 62 g ai/ha, scale 0 to 100 (0 no effect, 100 complete control), 13 to 15 days"}, "[9]": {"conditions": "500 g ai/ha, 0 to 100 scale where 0 is no effect and 100 is complete control"}},
  "data": [
    {"molecule": "N#Cc1cn(-c2c(C#N)cccc2Oc2ncc(Cl)cn2)nn1", "note": "[Compound 273]", "values": [
      {"measurement": "Plant response rating (0 to 100), Barnyardgrass", "setting": "barnyardgrass [1]; [5]", "result": 5},
      {"measurement": "Barnyardgrass plant response rating", "setting": "barnyardgrass [1]; [6]", "result": 5},
      {"measurement": "Plant response rating, Barnyardgrass", "setting": "barnyardgrass [1]; [7]", "result": 10},
      {"measurement": "Plant response rating, Barnyardgrass", "setting": "barnyardgrass [1]; [8]", "result": 5},
      {"measurement": "Plant response rating (0 to 100), Johnsongrass", "setting": "johnsongrass; [5]", "result": 0},
      {"measurement": "Johnsongrass plant response rating", "setting": "johnsongrass; [6]", "result": 0},
      {"measurement": "Plant response rating, Johnsongrass", "setting": "johnsongrass; [7]", "result": 5},
      {"measurement": "Plant response rating, Johnsongrass", "setting": "johnsongrass; [8]", "result": 5},
      {"measurement": "Pigweed plant response rating (0 to 100 scale)", "setting": "pigweed [2]; 125 g ai/ha", "result": 100},
      {"measurement": "Pigweed plant response rating", "setting": "pigweed [2]; [9]", "result": 100},
      {"measurement": "Plant response rating, Pigweed", "setting": "pigweed [3]; 125 g ai/ha, 0 to 100 scale, 0 no effect, 100 complete control", "result": 100},
      {"measurement": "Plant response rating, Pigweed", "setting": "pigweed [3]; [9]", "result": 100},
      {"measurement": "Plant response rating (0 to 100), Waterhemp", "setting": "waterhemp; [5]", "result": 35},
      {"measurement": "Waterhemp plant response rating", "setting": "waterhemp; [6]", "result": 40},
      {"measurement": "Plant response rating, Waterhemp", "setting": "waterhemp; [7]", "result": 80},
      {"measurement": "Plant response rating, Waterhemp", "setting": "waterhemp; [8]", "result": 65},
      {"measurement": "Plant response rating, Sedge, Umbrella", "setting": "sedge, umbrella", "result": 75},
      {"measurement": "Plant response rating (0 to 100), Oilseed Rape", "setting": "oilseed rape; [5]", "result": 0},
      {"measurement": "Oilseed Rape plant response rating", "setting": "oilseed rape; [6]", "result": 0},
      {"measurement": "Plant response rating, Oilseed Rape", "setting": "oilseed rape; [7]", "result": 25},
      {"measurement": "Plant response rating, Oilseed Rape", "setting": "oilseed rape; [8]", "result": 5},
      {"measurement": "Plant response rating (0 to 100), Corn", "setting": "corn; [5]", "result": 5},
      {"measurement": "Corn plant response rating", "setting": "corn; [6]", "result": 5},
      {"measurement": "Plant response rating, Corn", "setting": "corn; [7]", "result": 5},
      {"measurement": "Plant response rating, Corn", "setting": "corn; [8]", "result": 5},
      {"measurement": "Plant response rating (0 to 100), Crabgrass, Large", "setting": "large (Lg) crabgrass; [5]", "result": 5},
      {"measurement": "Crabgrass, Large plant response rating", "setting": "large (Lg) crabgrass; [6]", "result": 5},
      {"measurement": "Plant response rating, Crabgrass, Large", "setting": "large (Lg) crabgrass; [7]", "result": 10},
      {"measurement": "Plant response rating, Crabgrass, Large", "setting": "large (Lg) crabgrass; [8]", "result": 10},
      {"measurement": "Plant response rating (0 to 100), Wheat", "setting": "wheat, winter; [5]", "result": 0},
      {"measurement": "Wheat plant response rating", "setting": "wheat, winter; [6]", "result": 0},
      {"measurement": "Plant response rating, Wheat", "setting": "wheat, winter; [7]", "result": 10},
      {"measurement": "Plant response rating, Wheat", "setting": "wheat, winter; [8]", "result": 0},
      {"measurement": "Plant response rating, Barnyardgrass", "setting": "barnyardgrass [4]", "result": 0},
      {"measurement": "Plant response rating (0 to 100), Chickweed", "setting": "chickweed; [5]", "result": 10},
      {"measurement": "Chickweed plant response rating", "setting": "chickweed; [6]", "result": 30},
      {"measurement": "Plant response rating, Chickweed", "setting": "chickweed; [7]", "result": 70},
      {"measurement": "Plant response rating, Chickweed", "setting": "chickweed; [8]", "result": 35},
      {"measurement": "Plant response rating, Ducksalad", "setting": "Heteranthera limosa", "result": 75}
    ]}
  ]
}
